Measurements taken from BindingDB's records for doi:10.7270/Q2PK0DMQ (The Scripps Research Institute Molecular Screening Center, 2010).
pIC50: −log10 of the molar value.

Biological target: Protein-arginine deiminase type-4 (Homo sapiens, UniProt Q9UM07)
Assay: human PAD4 inhibitor potency, dose response, biochemical, fluorescence readout (AID 492970)

Protein-arginine deiminase type-4, sequence (Q9UM07 whole entry): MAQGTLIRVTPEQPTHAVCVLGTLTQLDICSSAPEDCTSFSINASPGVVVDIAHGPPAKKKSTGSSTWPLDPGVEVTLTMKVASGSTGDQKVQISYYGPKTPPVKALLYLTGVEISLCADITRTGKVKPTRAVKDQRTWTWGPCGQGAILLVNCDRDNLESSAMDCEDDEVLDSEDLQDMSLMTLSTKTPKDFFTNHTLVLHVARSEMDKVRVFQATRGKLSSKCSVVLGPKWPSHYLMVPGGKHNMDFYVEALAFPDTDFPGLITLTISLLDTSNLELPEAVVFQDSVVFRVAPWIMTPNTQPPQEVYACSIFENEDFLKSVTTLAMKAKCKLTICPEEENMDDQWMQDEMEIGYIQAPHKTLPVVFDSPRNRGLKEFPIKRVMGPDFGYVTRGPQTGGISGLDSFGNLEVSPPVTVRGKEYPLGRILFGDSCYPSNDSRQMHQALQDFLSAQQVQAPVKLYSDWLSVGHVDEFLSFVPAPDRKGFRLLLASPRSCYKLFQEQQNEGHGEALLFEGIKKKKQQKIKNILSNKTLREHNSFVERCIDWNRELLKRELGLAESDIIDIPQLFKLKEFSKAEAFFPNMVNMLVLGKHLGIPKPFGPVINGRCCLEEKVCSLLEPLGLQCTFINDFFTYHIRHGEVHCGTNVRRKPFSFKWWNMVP

O=C1NCC2=Nc3ccccc3NC(c3ccccc3)C12 (stereo unspecified) [MLS000106925]
pIC50: 4.00
